This is an account of results in patent publication US20050043289A1, “Crystalline hydrochloride of 7-(((5-amino-1,2,4-thiadiazol-3-yl) (fluoromethoxyimino)acetyl)amino)-3-((imino-1-piperazinylmethyl)methylhydrazono)-methyl-3-cephem-4-carboxylic acid” (priority 2002, published 2005).

For data set [1], the system named is Enterococcus faecalis. Put plainly: MIC, Agar Dilution Test and/or Micro Dilution Test (NCCLS). The data set is classed as cell-based. The settings on record: against Enterococcus faecalis. The source says: (§1) In particular, the compounds of the present invention show antimicrobial, e.g. antibacterial activity against aerobic and anaerobic growing bacteria, e.g. gram negative and gram positive bacteria such as Enterobacter, e.g. Enterobacter cloacae; Enterococcus, e.g. Enterococcus faecalis; Moraxella, e.g. Moraxella catarrhalis; Haemophilus, e.g. Haemophilus influenza; Klebsiella, e.g. Klebsiella edwardsii, Klebsiella pneumoniae; Streptococcus, e.g. Streptococcus pyogenes; Staphylococcus, e.g. Staphylococcus aureus MSSA (methicillin sensitive strains); Staphylococcus aureus MRSA (methicillin resistant strains); Escherichia coli; Proteus, e.g. Proteus mirabilis; Salmonella, e.g. Salmonella typhimurium; Serratia, e.g. Serratia marcescens; Pneumococci, e.g. Streptococcus pneumoniae (penicillin resistant and multi-drug resistant strains); in vitro in the Agar Dilution Test and/or Micro Dilution Test for bacteria according to National Committee for Clinical Laboratory Standards (NCCLS) 1993, • Document M7-A3, Vol. 13, No.25: “Methods for dilution Antimicrobial Susceptibility Tests for Bacteria that Grow Aerobically”—Third Edition, Approved Standard”; and • Document M11 -A3 for anaerobic bacteria in a concentration from about 0.001 to about […] (MIC), e.g. using strains including Staphylococcus aureus (ATCC 29213 and ATCC 9144); Enterococcus faecalis (ATCC 29212); Haemophilus influenza (NTCC 49247 and NCTC 11931); Escherichia coli (ATCC 25922 and ATCC 35218); Klebsiella pneumoniae (NCTC 11228); Klebsiella edwardsii (NCTC 10896); and in vivo in the septicaemia mouse model, in accordance to the method description Nr. […] E.g., mice are infected with an ED 95% of Staphylococcus aureus (ATCC 4995), Streptococcus pyogenes (ATCC 29218), Escherichia coli (Δ 12 NFI culture collection) and are treated 1.5 and 24 hours after infection. The ED 50% values ranging form ca. 0.2 to 50 mg/kg body weight are calculated by Probit analysis of the administered dosages of compounds. Activity is determined by numbers of surviving animals per group of 8 mice per dosage unit day 5 after infection. The compounds of the invention show an surprising overall activity spectrum.

Data set [2] concerns Staphylococcus aureus (MSSA). Described as above. Type of data set: cell-based. The settings on record: against Staphylococcus aureus (MSSA).
Source text: as §1

Data set [3] concerns methicillin resistant Staphylococcus aureus. Described as above. Type of data set: cell-based. The settings on record: against methicillin resistant Staphylococcus aureus.
Source text: as §1

Data set [4] concerns multi-drug resistant Pneumococcus. The description is as above. The data set is classed as cell-based. The settings on record: Streptococcus pneumoniae; against multi-drug resistant Pneumococcus.
Source text: as §1

Data set [5] deals with Enterobacter cloacae. The description is as above. The settings on record: against Enterobacter cloacae. The data set is classed as cell-based.
The nature of data set [6]: water uptake in presence of environmental moisture (stress test) / water content constancy. Type of data set: physicochemical. The settings on record: Karl Fischer, over 6 weeks. An excerpt: A monohydrochloride, produced according to the present invention, may be obtained in the form of a trihydrate, which, after appropriate drying, has a water content of ca. 7% to 10%, such as 7.3% to 9.6% (theory: 8.2%). The monohydrochloride in the form of a trihydrate may be dried, e.g. over P2O5, to a water content of 1.5%. […] The chloride content of the monohydrochloride in the form of a trihydrate is between 5% and 6% (theory: 5.5%).
Water content (Karl Fischer): 9.6%. […] HCl (titration): 5.5%. Isopropanol-content: 0.05%. Content of a compound of formula I (based on the free base): […]. pH and [β]^20D of a 1% solution in water: pH: 4.3; [β]^20589=−167±1°

Data set [7] is described as follows: storage stability in solid form. Type of data set: physicochemical. The settings on record: e.g. at 5° C.
A short description of data set [8]: stability in aqueous solution. Type of data set: physicochemical. The settings on record: pH values of 3-5, 5° C.
The nature of data set [9]: solubility in water. The data set is classed as physicochemical. The source says: Thus, a compound of the present invention is appropriate for pharmaceutical administration.

Molecules are shown by their SMILES. In brackets after ≈: the same amount, converted by molar mass. Where a name gives a salt, the structure may show the parent alone. Read-outs that look alike come from different tables or passages of the source.

On to `CN(/N=C/C1=C(C(=O)O)N2C(=O)[C@@H](NC(=O)/C(=N\OCF)c3nsc(N)n3)C2SC1)C(=N)N1CCNCC1` (stereo partly shown) [Example 2, 7-{[(5-amino-1,2,4-thiadiazol-3-yl)-(Z)-(fluoromethoxyimino)acetyl]amino}-3-[(imino-1-piperazinylmethyl)methylhydrazono]-methyl-3-cephem-4-carboxylic acid in the form of a monohydrochloride and in the form of a trihydrate], for which the MIC in data set [1] lay in the range of 0.1 to 0.8 µg/mL; in data set [2] it was 0.2 to 0.8 µg/mL; in [3], 0.8 to 12.6 µg/mL; in data set [4], 0.4 to 0.8 µg/mL; in data set [5], 0.025 to 12.8 µg/mL. Besides, the water content constancy entry in data set [6] was “Water content constant (±6%) over 6 weeks”.
As to `CN(/N=C/C1=C(C(=O)O)N2C(=O)[C@@H](NC(=O)/C(=N\OCF)c3nsc(N)n3)C2SC1)C(=N)N1CCNCC1` (stereo partly shown), in data set [7], the “storage time with practically no or only slight decomposition” value is given as “at least 4 weeks”. In data set [8], the “stability in aqueous solution” value is on record as “remains stable for at least one week”. Moreover, the solubility in data set [9] (in water at 5°C.) is ≥ 2 % (w/v); in data set [9] (in water at room temperature, read-out: solubility) it was about 100 mg/mL (≈ 176 mM).
